The source of these data is patent US8138168B1 (Takeda Pharmaceutical Company Limited, priority 2007, dated 2012).

Molecules are shown by their SMILES.

This experiment concerns the target T1, Recombinant human renin (Homo sapiens, UniProt P00797).
T1 construct: isolate the active form (residues 67-406); made in house; host or cells: FreeStyle 293-F cells (transient expression of pcDNA3.1(+)/hREN)
T1 sequence (P00797 67-406): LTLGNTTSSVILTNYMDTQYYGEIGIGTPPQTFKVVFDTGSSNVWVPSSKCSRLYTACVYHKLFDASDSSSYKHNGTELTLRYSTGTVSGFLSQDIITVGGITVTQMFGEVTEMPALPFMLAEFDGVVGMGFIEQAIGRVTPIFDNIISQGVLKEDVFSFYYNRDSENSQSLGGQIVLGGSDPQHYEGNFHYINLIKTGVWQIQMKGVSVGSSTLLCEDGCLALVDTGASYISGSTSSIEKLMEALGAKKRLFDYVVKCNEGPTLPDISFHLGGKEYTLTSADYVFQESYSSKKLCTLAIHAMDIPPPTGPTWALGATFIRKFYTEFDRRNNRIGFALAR
Put plainly: In vitro enzymatic activity assay of renin inhibitors (fluorogenic peptide substrate). Type of experiment: biochemical. Particulars: read-out: IC50 of Exemplified Compounds Against Renin. The essentials: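 Enzyme: recombinant human renin, 3 nM final, 10 min compound pre-incubation at 37 °C; buffer 50 mM Hepes pH 7.4 with 0.1 mg/mL BSA or extra 2% BSA; 5% DMSO.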
In the case of `COCCCn1c([C@@H]2CCCN(C(=O)C[C@H](N)CNC(=O)c3cccc(N4CCCCC4)n3)C2)nc2ccccc21` [Compound 313, N-((S)-2-amino-4-((R)-3-(1-(3-methoxypropyl)-1H-benzo[d]imidazol-2-yl)piperidin-1-yl)-4-oxobutyl)-6-(piperidin-1-yl)picolinamide], the IC50 (in general, the concentration needed to halve the response being measured) fell in the range of 100 to 1000 nM.
On to `COCCCn1c([C@@H]2CCCN(C(=O)C[C@H](N)CNC(=O)c3ccc(C(=O)OC)cc3)C2)nc2ccccc21` [Compound 314, methyl 4-((S)-2-amino-4-((R)-3-(1-(3-methoxypropyl)-1H-benzo[d]imidazol-2-yl)piperidin-1-yl)-4-oxobutylcarbamoyl)benzoate], for which the IC50 was 100 to 1000 nM.
In the case of `COCCCn1c([C@@H]2CCCN(C(=O)C[C@H](N)CNS(=O)(=O)c3cccc(OC)c3)C2)nc2ccccc21` [Compound 315, N-((S)-2-amino-4-((R)-3-(1-(3-methoxypropyl)-1H-benzo[d]imidazol-2-yl)piperidin-1-yl)-4-oxobutyl)-3-methoxybenzenesulfonamide] it was 100 to 1000 nM; in that of `COCCCn1c([C@@H]2CCCN(C(=O)C[C@H](N)CNS(=O)(=O)c3ccccc3)C2)nc2ccccc21` [Compound 316, N-((S)-2-amino-4-((R)-3-(1-(3-methoxypropyl)-1H-benzo[d]imidazol-2-yl)piperidin-1-yl)-4-oxobutyl)benzenesulfonamide], 100 to 1000 nM.
In the case of `COCCCn1c([C@@H]2CCCN(C(=O)C[C@H](N)CNC(=O)c3ccccc3)C2)nc2ccccc21` [Compound 317, N-((S)-2-amino-4-((R)-3-(1-(3-methoxypropyl)-1H-benzo[d]imidazol-2-yl)piperidin-1-yl)-4-oxobutyl)benzamide] it was 100 to 1000 nM; in that of `COCCCn1c([C@@H]2CCCN(C(=O)C[C@H](N)CNC(=O)c3cccc(F)c3)C2)nc2ccccc21` [Compound 318, N-((S)-2-amino-4-((R)-3-(1-(3-methoxypropyl)-1H-benzo[d]imidazol-2-yl)piperidin-1-yl)-4-oxobutyl)-3-fluorobenzamide], 100 to 1000 nM.
In the case of `COCCCn1c([C@@H]2CCCN(C(=O)C[C@H](N)CNC(=O)CC3CCCCC3)C2)nc2ccccc21` [Compound 319, N-((S)-2-amino-4-((R)-3-(1-(3-methoxypropyl)-1H-benzo[d]imidazol-2-yl)piperidin-1-yl)-4-oxobutyl)-2-cyclohexylacetamide] it was 100 to 1000 nM.
Regarding `COCCCn1c([C@@H]2CCCN(C(=O)C[C@H](N)CNC(=O)c3ccccc3Cl)C2)nc2ccccc21` [Compound 320, N-((S)-2-amino-4-((R)-3-(1-(3-methoxypropyl)-1H-benzo[d]imidazol-2-yl)piperidin-1-yl)-4-oxobutyl)-2-chlorobenzamide], the IC50 was 100 to 1000 nM.
In the case of `COCCCn1c([C@@H]2CCCN(C(=O)C[C@H](N)CNS(=O)(=O)c3ccc(OC)cc3)C2)nc2ccccc21` [Compound 321, N-((S)-2-amino-4-((R)-3-(1-(3-methoxypropyl)-1H-benzo[d]imidazol-2-yl)piperidin-1-yl)-4-oxobutyl)-4-methoxybenzenesulfonamide] it was 100 to 1000 nM; in that of `COCCCn1c([C@@H]2CCCN(C(=O)C[C@H](N)CNC(=O)NCCc3cc(OC)ccc3OC)C2)nc2ccccc21` [Compound 322, 1-((S)-2-amino-4-((R)-3-(1-(3-methoxypropyl)-1H-benzo[d]imidazol-2-yl)piperidin-1-yl)-4-oxobutyl)-3-(2,5-dimethoxyphenethyl)urea], 100 to 1000 nM; in that of `COCCCn1c([C@@H]2CCCN(C(=O)C[C@H](N)CNC(=O)NC3CCCCC3)C2)nc2ccccc21` [Compound 323, 1-((S)-2-amino-4-((R)-3-(1-(3-methoxypropyl)-1H-benzo[d]imidazol-2-yl)piperidin-1-yl)-4-oxobutyl)-3-cyclohexylurea], more than 1000 nM.
